Test results published in PubChem BioAssay (NCI).
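In this assay, cells in 96-well plates receive the compound at five concentrations for 48 hours. Endpoints are linearly interpolated between the surrounding concentrations. GI50 = concentration required for 50% inhibition of growth. TGI is the concentration that stops growth completely.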

Key:
Test in all cases: NCI anticancer screen, dose series, 48 h
SF-268 CNS = system: SF-268 CNS
HOP-92 NSCLC = system: HOP-92 NSCLC
K-562 leukemia = system: K-562 leukemia
CAKI-1 renal = system: CAKI-1 renal
EKVX NSCLC = system: EKVX NSCLC
MOLT-4 leukemia = system: MOLT-4 leukemia
SNB-19 CNS = system: SNB-19 CNS
U251 CNS = system: U251 CNS
BT-549 breast = system: BT-549 breast
786-0 renal = system: 786-0 renal
MDA-MB-435 = system: MDA-MB-435

| Compound | TGI (SF-268 CNS) [µM] | TGI (HOP-92 NSCLC) [µM] | TGI (K-562 leukemia) [µM] | TGI (CAKI-1 renal) [µM] | TGI (EKVX NSCLC) [µM] | TGI (MOLT-4 leukemia) [µM] | TGI (SNB-19 CNS) [µM] | TGI (U251 CNS) [µM] | TGI (BT-549 breast) [µM] | TGI (786-0 renal) [µM] | TGI (MDA-MB-435) [µM] | GI50 (SF-268 CNS) [µM] | GI50 (HOP-92 NSCLC) [µM] | GI50 (K-562 leukemia) [µM] | GI50 (CAKI-1 renal) [µM] | GI50 (EKVX NSCLC) [µM] | GI50 (MOLT-4 leukemia) [µM] | GI50 (U251 CNS) [µM] | GI50 (BT-549 breast) [µM] |
| --- | --- | --- | --- | --- | --- | --- | --- | --- | --- | --- | --- | --- | --- | --- | --- | --- | --- | --- | --- |
| OC(CC(O)(C(F)(F)Cl)C(F)(F)Cl)c1ccccc1 (centres undefined) | > 10 | > 10 | > 10 | > 10 | > 10 | > 10 | > 10 | > 10 | > 10 |  |  |  |  |  |  |  |  |  |  |
| CCn1ncc2c(=O)n3ncn(-c4ccc(Br)cc4)c3nc21 | > 100 |  | > 100 |  | > 100 | > 100 | > 100 | > 100 | > 100 | > 100 | > 100 |  |  |  |  |  |  |  |  |
| CC/C=N\N1C(N)=C(C#N)C(C#N)(C#N)C1CC (centres undefined) | > 100 |  | > 100 | > 100 | > 100 | > 100 | > 100 | > 100 | > 100 | > 100 | > 100 |  |  |  |  |  |  |  |  |
| O=[N+]([O-])c1ccc(-c2csc(=[N+]3CCCCC3)s2)cc1 | > 100 | 64.9 | > 100 | > 100 | > 100 | > 60.9 | > 100 | > 20.8 |  | > 100 |  |  |  |  |  |  |  |  |  |
| CO[P@@]1(=O)O[C@@H](c2ccccc2)[C@H](O)[C@]1(O)c1ccccc1 | > 100 | > 100 | > 100 | > 100 | 60.4 | > 100 | > 100 | > 100 | > 100 | > 100 | > 100 |  |  |  |  |  |  |  |  |
| N#Cc1c(-c2ccc([N+](=O)[O-])cc2)c(C#N)c(=O)n(NS(=O)(=O)c2ccccc2)c1O |  | > 100 | > 100 | > 100 | > 100 | > 100 | 35.5 | > 100 | > 100 | > 100 | > 100 |  |  |  |  |  |  |  |  |
| CN(C)CCNCCCNc1c2ccccc2nc2cccc([N+](=O)[O-])c12 | 0.105 | 0.0346 | < 0.0184 | 0.331 | 0.0617 | < 0.0192 | 0.177 | 0.0801 | 0.624 | 0.106 | 0.0313 |  |  |  |  |  |  |  |  |
| CC(C)=CCC[C@@H](C)C1=C(Nc2ccccc2F)C(O)=C(C)C(=O)C1=O | > 100 | > 69.9 | > 100 | 34.2 | > 100 | > 67.8 | > 100 | > 31.6 | > 100 | > 100 | > 100 |  |  |  |  |  |  |  |  |
| Cc1cc(S(=O)(=O)N=C2Nc3cccc4cccc(c34)N2)c(S)cc1Cl | > 100 | > 100 | > 100 | > 100 | > 100 | > 100 | > 100 | > 100 | > 100 | > 100 | > 100 |  |  |  |  |  |  |  |  |
| CCOC(=O)c1c(-c2ccccc2)c(OC)cn1C | > 10 |  | > 10 | > 10 | > 10 | > 10 | > 10 | > 10 | > 10 | > 10 | > 10 |  |  |  |  |  |  |  |  |
| O=C1CSC(c2c[nH]c3ccccc23)N1c1ccc(Cl)cc1Cl (centres undefined) | > 100 | > 100 | > 100 |  | > 100 | > 100 | > 100 | > 100 | > 100 | > 100 |  |  |  |  |  |  |  |  |  |
| O=C1c2cc3c(cc2-c2c1c1ccc(Cl)cc1c(=O)n2CCCn1ccnc1)OCO3 | > 100 | 0.491 | 12.6 | > 100 | > 100 | 1.17 |  | 11.3 | > 100 |  |  | < 0.01 | 0.0229 | 0.0229 | < 0.01 | 0.117 | < 0.01 | < 0.01 | 0.0491 |
| COc1ccc(C2c3cc4c(cc3OC(Nc3ccccc3)C2C)OCO4)cc1 (centres undefined) | > 100 | > 100 | > 100 | > 100 | 98.7 | > 100 | > 100 | > 100 | > 100 |  | > 100 |  |  |  |  |  |  |  |  |
| CC[C@]12C=CCN3CCC4(c5cc([C@@]6(C(=O)OC)CC7CN(CCc8c6[nH]c6ccccc86)CC6CCCCC67)c(OC)cc5N(C)C4[C@](O)(C(=O)OC)C1OC(C)=O)[C@@H]32 (some centres undefined) | 1.47 | 1.5 | > 21.7 | 12 | 21.7 |  | 15.4 | < 0.01 |  | 11 | < 0.01 |  |  |  |  |  |  |  |  |
| CC(=O)Oc1ccn2nc(C)c(Br)c2c1 | > 100 | > 100 | > 100 |  | > 100 | > 100 | > 100 | > 100 | > 100 | > 100 | > 61.8 |  |  |  |  |  |  |  |  |
| O=C1Nc2cc(F)ccc2C1=O | > 100 | > 100 | > 100 | > 100 | > 100 | > 100 | > 100 | > 100 |  | > 100 |  |  |  |  |  |  |  |  |  |
| CCOC(=O)/C=C/CCC(C)(C)COC(C)=O | > 10 | > 10 | > 10 | > 10 | > 10 | > 10 | > 10 | > 10 |  | > 10 | > 10 |  |  |  |  |  |  |  |  |
| CC[C@H](NC(=O)OC(C)(C)C)C(=O)NCP(=O)(OCc1ccc([N+](=O)[O-])cc1)OCc1ccc([N+](=O)[O-])cc1 | > 100 | > 100 |  | > 100 |  | > 100 | > 100 | 97.1 | > 100 | > 100 | > 100 |  |  |  |  |  |  |  |  |
| CCC1(CC)C(=O)N(C(=O)c2cc(OC)c(OC)c(OC)c2)N(C(=O)c2cc(OC)c(OC)c(OC)c2)C1=O | > 50 |  | > 50 | > 50 | > 50 |  | > 50 | > 50 | > 50 | > 50 | > 50 |  |  |  |  |  |  |  |  |
| CCOC(=O)c1csc(NC(=O)CCN2CCN(C)CC2)n1 |  | > 100 | > 100 | > 100 |  | > 100 | > 100 | > 100 |  |  | > 100 |  |  |  |  |  |  |  |  |
